Assays:
[1] = biological target: Wee1-like protein kinase (Homo sapiens) (UniProt P30291); experiment: Selectivity interaction (KinomeScan (DiscoverX)) EUB0000229b WEE1; conditions: at 10 µM
[2] = biological target: T1, Phosphatidylinositol 3-kinase C2 domain-containing subunit gamma (Homo sapiens) (UniProt O75747); experiment: Selectivity interaction (Kinase panel (Eurofins)) EUB0001564a PIK3C2G; conditions: at 1 µM
T1 sequence (whole entry): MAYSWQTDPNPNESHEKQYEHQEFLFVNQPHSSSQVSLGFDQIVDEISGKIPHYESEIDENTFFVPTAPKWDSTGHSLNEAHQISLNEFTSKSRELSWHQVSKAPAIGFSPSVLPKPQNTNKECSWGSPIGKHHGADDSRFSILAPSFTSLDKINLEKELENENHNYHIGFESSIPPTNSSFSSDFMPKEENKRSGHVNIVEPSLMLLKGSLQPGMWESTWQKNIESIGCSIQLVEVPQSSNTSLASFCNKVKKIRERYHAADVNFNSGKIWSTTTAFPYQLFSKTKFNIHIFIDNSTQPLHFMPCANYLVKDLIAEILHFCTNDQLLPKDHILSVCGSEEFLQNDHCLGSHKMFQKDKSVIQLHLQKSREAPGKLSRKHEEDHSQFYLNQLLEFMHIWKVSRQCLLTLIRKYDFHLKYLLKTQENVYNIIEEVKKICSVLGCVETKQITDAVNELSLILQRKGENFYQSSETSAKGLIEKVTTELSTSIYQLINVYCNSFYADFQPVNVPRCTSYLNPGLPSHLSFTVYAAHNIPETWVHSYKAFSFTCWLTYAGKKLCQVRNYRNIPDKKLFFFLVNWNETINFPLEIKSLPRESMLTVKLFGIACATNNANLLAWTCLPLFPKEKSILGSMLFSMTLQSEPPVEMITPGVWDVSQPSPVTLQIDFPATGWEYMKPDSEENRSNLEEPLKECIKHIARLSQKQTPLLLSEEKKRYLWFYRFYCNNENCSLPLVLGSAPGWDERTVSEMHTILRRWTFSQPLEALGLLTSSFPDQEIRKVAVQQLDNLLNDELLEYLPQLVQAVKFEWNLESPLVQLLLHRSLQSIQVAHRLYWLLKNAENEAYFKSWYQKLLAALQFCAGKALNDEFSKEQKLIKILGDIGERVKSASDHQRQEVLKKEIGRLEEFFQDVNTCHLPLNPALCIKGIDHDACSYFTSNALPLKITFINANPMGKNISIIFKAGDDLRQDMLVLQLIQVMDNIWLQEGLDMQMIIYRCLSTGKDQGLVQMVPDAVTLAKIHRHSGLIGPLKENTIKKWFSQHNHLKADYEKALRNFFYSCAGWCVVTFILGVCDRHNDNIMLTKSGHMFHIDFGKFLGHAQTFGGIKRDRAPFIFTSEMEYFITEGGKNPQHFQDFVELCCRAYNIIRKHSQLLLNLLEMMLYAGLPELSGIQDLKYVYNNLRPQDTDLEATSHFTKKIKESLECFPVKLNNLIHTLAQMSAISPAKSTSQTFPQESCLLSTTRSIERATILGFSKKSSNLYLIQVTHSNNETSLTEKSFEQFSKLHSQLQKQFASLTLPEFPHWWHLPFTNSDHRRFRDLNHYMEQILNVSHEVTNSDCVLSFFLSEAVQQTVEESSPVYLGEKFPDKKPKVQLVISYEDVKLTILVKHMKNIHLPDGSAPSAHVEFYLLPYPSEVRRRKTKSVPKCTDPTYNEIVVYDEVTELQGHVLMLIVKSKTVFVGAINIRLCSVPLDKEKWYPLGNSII

[3] = biological target: T2, Discoidin domain-containing receptor 2 (Homo sapiens) (UniProt Q16832); experiment: Selectivity interaction (KinomeScan (DiscoverX)) EUB0000618a DDR2; conditions: at 10 µM
T2 sequence (whole entry): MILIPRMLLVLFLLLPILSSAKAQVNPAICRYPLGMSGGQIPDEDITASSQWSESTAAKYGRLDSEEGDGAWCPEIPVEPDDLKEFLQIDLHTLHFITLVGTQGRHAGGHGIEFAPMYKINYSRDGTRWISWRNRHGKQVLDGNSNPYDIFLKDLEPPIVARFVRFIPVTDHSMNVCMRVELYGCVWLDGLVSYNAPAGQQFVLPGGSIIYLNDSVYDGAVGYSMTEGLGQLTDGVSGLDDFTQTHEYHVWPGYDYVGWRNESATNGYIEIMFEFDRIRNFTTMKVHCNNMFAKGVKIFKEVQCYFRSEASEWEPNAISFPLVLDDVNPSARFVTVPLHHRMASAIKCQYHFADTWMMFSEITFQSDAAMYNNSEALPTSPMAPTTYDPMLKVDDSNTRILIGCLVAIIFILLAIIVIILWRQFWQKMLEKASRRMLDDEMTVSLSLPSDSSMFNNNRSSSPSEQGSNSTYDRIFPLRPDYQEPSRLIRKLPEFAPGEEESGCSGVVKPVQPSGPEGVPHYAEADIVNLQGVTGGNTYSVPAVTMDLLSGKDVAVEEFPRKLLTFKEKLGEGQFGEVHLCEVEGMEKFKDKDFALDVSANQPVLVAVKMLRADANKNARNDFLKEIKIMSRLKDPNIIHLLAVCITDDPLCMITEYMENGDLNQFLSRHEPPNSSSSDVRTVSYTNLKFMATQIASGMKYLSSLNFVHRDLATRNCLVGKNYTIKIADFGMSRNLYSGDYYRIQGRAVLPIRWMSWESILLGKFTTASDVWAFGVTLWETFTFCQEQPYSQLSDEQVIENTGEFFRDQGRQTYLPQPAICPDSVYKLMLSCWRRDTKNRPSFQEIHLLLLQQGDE

[4] = biological target: DNA-dependent protein kinase catalytic subunit (Homo sapiens) (UniProt P78527); experiment: Selectivity interaction (ActivX KiNativ screen (ex vivo kinase selectivity in human PBMCs)) EUB0001619a PRKDC; type: cell-based; conditions: PBMC, at 1 µM
Sequence of DNA-dependent protein kinase catalytic subunit (Homo sapiens) (P78527 whole entry): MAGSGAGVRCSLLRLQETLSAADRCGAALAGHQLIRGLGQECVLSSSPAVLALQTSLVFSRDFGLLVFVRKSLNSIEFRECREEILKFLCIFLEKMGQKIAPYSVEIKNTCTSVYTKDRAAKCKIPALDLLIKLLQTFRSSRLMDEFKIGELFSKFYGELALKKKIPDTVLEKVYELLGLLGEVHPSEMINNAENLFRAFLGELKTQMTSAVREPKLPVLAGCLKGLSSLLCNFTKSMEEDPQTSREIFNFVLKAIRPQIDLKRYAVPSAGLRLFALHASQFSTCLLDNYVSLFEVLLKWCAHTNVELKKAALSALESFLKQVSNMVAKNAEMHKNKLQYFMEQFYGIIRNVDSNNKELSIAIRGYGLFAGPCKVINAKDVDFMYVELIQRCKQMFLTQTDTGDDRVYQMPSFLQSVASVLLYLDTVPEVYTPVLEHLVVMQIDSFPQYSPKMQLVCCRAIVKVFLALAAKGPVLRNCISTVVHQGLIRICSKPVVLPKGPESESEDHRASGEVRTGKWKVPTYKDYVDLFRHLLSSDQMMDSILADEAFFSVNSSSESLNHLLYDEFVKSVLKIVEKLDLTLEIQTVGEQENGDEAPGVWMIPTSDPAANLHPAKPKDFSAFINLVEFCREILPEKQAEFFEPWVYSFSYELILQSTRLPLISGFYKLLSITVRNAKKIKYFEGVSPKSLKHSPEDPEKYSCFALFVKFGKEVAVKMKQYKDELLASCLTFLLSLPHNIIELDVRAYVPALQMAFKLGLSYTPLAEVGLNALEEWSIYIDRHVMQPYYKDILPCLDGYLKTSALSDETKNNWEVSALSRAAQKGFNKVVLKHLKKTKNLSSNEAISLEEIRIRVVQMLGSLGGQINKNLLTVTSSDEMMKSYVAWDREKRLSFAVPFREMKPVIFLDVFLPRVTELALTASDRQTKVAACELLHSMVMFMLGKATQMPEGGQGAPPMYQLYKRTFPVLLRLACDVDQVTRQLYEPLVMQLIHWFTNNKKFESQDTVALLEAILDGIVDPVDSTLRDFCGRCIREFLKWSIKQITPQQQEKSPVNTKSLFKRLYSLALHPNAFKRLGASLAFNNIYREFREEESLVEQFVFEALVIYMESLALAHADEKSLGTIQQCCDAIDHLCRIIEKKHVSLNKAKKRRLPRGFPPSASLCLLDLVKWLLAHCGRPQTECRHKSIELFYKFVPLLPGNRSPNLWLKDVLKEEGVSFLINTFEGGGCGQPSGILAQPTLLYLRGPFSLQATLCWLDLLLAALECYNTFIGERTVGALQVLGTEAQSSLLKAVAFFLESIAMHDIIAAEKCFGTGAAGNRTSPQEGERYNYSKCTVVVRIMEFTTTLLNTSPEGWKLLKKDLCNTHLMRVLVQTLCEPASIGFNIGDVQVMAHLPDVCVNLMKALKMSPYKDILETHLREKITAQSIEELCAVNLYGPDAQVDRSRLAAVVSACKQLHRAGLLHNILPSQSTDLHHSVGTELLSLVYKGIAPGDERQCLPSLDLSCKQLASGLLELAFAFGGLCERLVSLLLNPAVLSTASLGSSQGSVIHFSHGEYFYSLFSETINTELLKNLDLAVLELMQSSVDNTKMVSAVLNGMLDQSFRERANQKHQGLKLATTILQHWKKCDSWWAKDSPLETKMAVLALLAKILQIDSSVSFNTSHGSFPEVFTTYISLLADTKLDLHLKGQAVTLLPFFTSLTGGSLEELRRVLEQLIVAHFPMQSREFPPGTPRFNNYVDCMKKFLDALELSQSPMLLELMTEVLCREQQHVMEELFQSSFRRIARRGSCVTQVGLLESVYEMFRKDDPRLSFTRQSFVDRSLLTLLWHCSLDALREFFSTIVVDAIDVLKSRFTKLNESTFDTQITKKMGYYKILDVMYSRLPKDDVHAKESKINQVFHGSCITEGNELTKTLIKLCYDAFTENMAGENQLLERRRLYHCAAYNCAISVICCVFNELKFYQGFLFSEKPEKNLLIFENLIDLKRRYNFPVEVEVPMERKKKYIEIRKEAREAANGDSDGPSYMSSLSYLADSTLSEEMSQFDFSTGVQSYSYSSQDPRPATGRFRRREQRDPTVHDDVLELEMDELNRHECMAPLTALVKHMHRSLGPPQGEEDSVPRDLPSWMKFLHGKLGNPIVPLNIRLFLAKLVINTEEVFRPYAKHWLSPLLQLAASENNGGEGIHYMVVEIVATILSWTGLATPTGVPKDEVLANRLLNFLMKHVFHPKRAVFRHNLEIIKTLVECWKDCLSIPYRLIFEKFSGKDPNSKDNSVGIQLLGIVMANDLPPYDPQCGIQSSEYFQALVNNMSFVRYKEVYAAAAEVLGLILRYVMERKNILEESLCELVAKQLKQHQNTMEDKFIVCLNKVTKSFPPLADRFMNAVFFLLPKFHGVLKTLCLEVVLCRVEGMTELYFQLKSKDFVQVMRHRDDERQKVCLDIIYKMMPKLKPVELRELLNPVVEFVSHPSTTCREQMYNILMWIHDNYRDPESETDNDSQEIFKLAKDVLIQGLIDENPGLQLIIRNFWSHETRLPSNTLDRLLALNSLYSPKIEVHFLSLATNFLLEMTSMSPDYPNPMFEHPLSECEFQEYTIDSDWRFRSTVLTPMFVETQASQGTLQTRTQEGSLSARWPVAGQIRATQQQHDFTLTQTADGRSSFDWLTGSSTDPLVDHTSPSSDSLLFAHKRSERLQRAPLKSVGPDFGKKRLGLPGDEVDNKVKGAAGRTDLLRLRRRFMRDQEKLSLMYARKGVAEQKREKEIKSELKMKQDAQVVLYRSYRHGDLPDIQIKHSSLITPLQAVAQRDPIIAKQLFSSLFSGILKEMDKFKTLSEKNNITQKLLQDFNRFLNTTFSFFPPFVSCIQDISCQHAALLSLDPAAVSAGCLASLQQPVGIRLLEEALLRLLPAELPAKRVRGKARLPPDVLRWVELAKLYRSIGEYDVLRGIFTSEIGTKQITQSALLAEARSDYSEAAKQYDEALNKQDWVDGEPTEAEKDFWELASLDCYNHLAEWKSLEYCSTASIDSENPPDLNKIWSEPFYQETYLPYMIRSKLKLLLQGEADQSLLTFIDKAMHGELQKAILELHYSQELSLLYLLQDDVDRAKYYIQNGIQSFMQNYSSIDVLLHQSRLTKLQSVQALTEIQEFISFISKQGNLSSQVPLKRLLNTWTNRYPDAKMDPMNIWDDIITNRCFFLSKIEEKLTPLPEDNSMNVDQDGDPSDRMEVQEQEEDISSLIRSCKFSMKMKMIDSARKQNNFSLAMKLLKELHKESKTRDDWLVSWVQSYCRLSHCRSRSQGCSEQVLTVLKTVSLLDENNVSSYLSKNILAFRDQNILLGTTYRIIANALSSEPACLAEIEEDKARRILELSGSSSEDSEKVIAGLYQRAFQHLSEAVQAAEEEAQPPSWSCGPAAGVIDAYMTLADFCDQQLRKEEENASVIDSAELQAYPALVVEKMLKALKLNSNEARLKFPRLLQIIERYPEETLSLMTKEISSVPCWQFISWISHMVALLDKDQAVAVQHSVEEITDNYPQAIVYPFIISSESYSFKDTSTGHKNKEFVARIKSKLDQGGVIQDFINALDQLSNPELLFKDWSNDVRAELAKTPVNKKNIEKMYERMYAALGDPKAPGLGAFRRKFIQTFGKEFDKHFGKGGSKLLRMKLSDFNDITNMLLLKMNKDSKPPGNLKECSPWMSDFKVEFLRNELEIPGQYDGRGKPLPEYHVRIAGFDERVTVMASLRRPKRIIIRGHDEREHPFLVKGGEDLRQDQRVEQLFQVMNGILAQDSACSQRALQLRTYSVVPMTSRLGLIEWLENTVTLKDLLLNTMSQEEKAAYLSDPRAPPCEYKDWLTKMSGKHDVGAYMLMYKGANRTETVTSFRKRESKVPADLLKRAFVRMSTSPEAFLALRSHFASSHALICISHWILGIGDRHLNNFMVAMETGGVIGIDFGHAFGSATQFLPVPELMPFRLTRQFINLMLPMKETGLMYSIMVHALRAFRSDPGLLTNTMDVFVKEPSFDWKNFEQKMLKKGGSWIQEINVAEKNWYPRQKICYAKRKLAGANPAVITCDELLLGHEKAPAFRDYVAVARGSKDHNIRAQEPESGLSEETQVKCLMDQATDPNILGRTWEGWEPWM

Sequence of Wee1-like protein kinase (Homo sapiens) (P30291 whole entry, looked up, the tested form may be a part): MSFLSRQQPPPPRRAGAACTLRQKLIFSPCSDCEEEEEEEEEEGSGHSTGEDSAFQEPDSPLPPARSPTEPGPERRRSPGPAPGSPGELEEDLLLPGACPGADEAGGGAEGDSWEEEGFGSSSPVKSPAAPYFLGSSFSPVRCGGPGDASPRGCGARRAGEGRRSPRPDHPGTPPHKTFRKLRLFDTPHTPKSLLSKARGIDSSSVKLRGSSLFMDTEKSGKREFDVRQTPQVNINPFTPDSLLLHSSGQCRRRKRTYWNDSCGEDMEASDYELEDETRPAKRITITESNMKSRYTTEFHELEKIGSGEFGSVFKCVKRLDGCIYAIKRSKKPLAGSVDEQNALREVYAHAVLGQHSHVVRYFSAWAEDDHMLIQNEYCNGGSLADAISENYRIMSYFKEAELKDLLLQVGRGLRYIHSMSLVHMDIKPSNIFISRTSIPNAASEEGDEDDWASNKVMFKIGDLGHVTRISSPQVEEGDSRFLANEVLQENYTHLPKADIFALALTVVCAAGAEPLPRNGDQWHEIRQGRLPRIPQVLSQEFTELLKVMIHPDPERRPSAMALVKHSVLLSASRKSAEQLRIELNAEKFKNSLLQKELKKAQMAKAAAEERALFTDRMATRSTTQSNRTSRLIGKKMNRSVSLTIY

In the case of `COc1cc(N(C)c2ccnc3ccc(C(F)(F)F)cc23)cc(OC)c1OC`, the % binding [1] is reported as 91%.
`CC[C@@H](Nc1c(C#N)c(-c2ccc(-c3cccc(C)c3F)cc2)nc2cnccc12)C(=O)O` [BAY-091] gave a % of inhibition [2] of 25.4%.
In the case of `O[C@H]1CC[C@H](Nc2ncc3nc(Nc4c(F)cc(F)cc4F)n([C@H]4CCOC4)c3n2)CC1`, the % of control [3] is reported as 89%.
`N#Cc1cccc(-c2c[nH]c3ncnc(N4CCOCC4)c23)c1` showed a % of inhibition [4] of -4%.
